{"source": "paper PMC6658617", "about": "“Structure-Guided Identification of Resistance Breaking Antimalarial N‑Myristoyltransferase Inhibitors” (Cell Chemical Biology, 2019)", "key": {"[1]": {"tested_on": "P. falciparum Dd2 parental line", "assay": "microbe, parasite or virus in culture", "format": "cell-based", "details": "EC50 after 72 h (n = 3)"}, "PvNMT[G386E] [2]": {"target": "T1, PvNMT[G386E] (Plasmodium vivax, UniProt A5K1A2, G386E)", "T1 sequence (A5K1A2 27-410 G386E)": "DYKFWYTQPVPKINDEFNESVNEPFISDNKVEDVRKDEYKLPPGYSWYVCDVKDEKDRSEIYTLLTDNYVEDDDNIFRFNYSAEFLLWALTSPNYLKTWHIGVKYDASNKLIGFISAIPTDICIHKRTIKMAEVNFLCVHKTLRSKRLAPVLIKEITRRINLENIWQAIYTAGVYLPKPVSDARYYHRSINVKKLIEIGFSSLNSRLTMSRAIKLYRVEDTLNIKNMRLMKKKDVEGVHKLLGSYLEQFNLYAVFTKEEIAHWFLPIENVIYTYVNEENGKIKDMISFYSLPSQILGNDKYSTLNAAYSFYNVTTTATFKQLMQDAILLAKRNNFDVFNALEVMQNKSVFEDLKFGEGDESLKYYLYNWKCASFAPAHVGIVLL", "format": "binding, P. vivax"}, "PvNMT[G386E] [3]": {"target": "T1, PvNMT[G386E]", "assay": "biochemical", "format": "biochemical, P. vivax"}, "[4]": {"tested_on": "P. falciparum 3D7 parasites (PfNMT[WT])", "assay": "microbe, parasite or virus in culture", "format": "cell-based", "details": "for EC50: Plasmodium falciparum"}, "PfNMT[G386E] parasites": {"tested_on": "PfNMT[G386E] parasites", "assay": "microbe, parasite or virus in culture", "format": "cell-based"}, "[5]": {"tested_on": "P. falciparum 3D7 parasites", "assay": "Parasite development and GAP45 immunofluorescence at four times EC50", "format": "cell-based", "details": "at four times the EC50 value (140 nM), 45 h PI", "experimental": "For IFA, slides were air dried, fixed in 4 % paraformaldehyde (PFA) in PBS for 10–20 min, permeabilized in 0.1 % Triton X-100 in PBS for 10 min, and blocked with 3 % BSA in PBS for at least 30 min at 4°C. GAP45 detection was achieved using a primary rabbit anti-GAP45-antibody ([Rees-Channer et al., 2006]). Slides were mounted in ProLong® Gold Antifade mounting medium containing DAPI (4’,6-diamidino-2-phenylindole), and viewed on a Nikon Eclipse Ni-E imaging system with a Hamamatsu Orca-flash 4.0 digital camera and a Plan apo λ 100x/1.45 oil immersion objective. Images were captured using Nikon’s NIS-Elements imaging software generating Z-stack images of individual parasites, using deconvolution options and exporting the image as a tiff file, which was further edited using Adobe Photoshop."}, "PvNMT[WT] [6]": {"target": "T2, PvNMT[WT] (Plasmodium vivax, UniProt A5K1A2)", "T2 construct": "hexaHis (3C protease-cleavable) (N); made in house; host or cells: E. coli Rosetta-gami (DE3), pET11a", "T2 sequence (A5K1A2 entry or part of it)": "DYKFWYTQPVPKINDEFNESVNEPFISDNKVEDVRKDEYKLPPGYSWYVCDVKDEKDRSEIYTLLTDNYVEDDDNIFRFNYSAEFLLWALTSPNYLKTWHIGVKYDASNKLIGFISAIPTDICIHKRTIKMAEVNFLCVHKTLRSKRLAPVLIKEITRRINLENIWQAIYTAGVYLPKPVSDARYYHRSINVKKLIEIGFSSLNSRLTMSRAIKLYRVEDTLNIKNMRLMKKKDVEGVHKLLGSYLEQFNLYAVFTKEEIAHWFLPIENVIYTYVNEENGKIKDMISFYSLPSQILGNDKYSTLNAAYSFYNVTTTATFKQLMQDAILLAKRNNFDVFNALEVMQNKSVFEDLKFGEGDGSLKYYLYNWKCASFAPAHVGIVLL", "format": "binding", "details": "SPR sensorgrams"}, "PvNMT[WT] [7]": {"target": "T2, PvNMT[WT]", "assay": "biochemical", "format": "binding", "details": "5 μM compound, absence of MyrCoA; read-out: thermal stabilization (ΔTm) of PvNMT[WT]"}, "[8]": {"tested_on": "N-myristoylation in PfNMT[G386E] parasite clones", "format": "cell-based", "details": "140 nM, 36–45 h post-invasion"}, "PvNMT[G386E] [9]": {"target": "T1, PvNMT[G386E]", "assay": "Thermal shift assay", "format": "binding, P. vivax", "details": "5 μM compound"}, "[10]": {"tested_on": "N-myristoylation in WT 3D7 parasites", "assay": "YnMyr metabolic labelling of NMT substrates", "format": "cell-based, P. falciparum", "details": "140 nM, 36–45 h post-invasion", "experimental": "Synchronized populations of stage-specific parasites were labelled with 25 μM of YnMyr for the specified length of time. Parasites were then lysed in 0.15 % saponin for 10 min on ice. The pellet was washed until the supernatant was colorless and then stored at -80°C. Thawed parasite pellets were extracted in 1 % Triton X-100, 0.1 % SDS in PBS on ice for 20 min with 1 min sonication. The protein concentration of the lysate was measured by BCA assay and adjusted to 1 mg/mL with PBS. The capture reagent was ‘clicked’ (100 μM capture reagent AzRB2, 1 mM CuSO4, 1 mM TCEP, 100 μM TBTA), the reaction was quenched with EDTA, and then precipitated proteins were washed with ice cold methanol as described previously ([Heal et al., 2011], [Wright et al., 2015]). Proteins were re-dissolved in 2 % SDS, 10 mM DTT, in PBS at 1 mg/mL and heated for 7 min at 95°C in sample loading buffer prior to SDS-PAGE.\nFollowing the click reaction, the protein solution in PBS containing 2 % SDS, 10 mM DTT was treated with 0.2 M NaOH for 1 h at room temperature with vortexing. Samples were neutralized with an equivalent volume and concentration of HCl and diluted with PBS to 1 mg/mL prior to gel analysis."}, "HsNMT1": {"target": "HsNMT1 (Homo sapiens, UniProt P30419)", "sequence (P30419 whole entry)": "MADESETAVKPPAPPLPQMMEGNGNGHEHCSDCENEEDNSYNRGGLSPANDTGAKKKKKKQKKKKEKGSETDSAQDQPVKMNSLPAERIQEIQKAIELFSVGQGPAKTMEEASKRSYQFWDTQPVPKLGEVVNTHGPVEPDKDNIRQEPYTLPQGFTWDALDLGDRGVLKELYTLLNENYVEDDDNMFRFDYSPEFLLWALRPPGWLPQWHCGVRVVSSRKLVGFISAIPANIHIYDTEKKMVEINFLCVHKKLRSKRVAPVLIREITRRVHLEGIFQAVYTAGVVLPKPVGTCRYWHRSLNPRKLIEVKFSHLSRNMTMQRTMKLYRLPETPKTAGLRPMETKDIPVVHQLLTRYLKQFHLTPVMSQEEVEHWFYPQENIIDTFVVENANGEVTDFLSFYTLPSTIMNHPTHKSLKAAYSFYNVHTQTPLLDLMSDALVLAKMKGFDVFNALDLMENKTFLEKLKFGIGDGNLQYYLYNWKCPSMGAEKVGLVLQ", "format": "biochemical", "details": "selectivity, CPM assay"}, "[11]": {"tested_on": "IMP-1002-resistant P. falciparum Dd2 parasites (uncloned population and clones, NMT G386E)", "assay": "microbe, parasite or virus in culture", "format": "cell-based", "details": "for EC50: Plasmodium falciparum, DD2, 72 h"}, "HsNMT2": {"target": "HsNMT2 (Homo sapiens, UniProt O60551)", "sequence (O60551 whole entry)": "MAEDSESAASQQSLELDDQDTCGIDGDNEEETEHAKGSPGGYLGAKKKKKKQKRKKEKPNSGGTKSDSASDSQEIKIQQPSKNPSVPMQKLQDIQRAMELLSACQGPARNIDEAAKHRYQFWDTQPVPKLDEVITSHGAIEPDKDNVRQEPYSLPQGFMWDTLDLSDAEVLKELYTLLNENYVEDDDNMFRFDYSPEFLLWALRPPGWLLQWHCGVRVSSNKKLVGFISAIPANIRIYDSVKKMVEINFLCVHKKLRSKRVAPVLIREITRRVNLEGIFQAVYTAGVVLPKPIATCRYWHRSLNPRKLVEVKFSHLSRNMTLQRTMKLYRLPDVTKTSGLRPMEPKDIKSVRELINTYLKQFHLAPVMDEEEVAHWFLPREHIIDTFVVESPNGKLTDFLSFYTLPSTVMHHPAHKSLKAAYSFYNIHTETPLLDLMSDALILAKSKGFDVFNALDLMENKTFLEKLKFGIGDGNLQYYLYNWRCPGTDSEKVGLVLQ", "format": "biochemical", "details": "selectivity, CPM assay"}, "[12]": {"tested_on": "P. falciparum 3D7 PfNMT[G386E] clones", "assay": "microbe, parasite or virus in culture", "format": "cell-based", "details": "for EC50: Plasmodium falciparum"}, "WT 3D7 parasites": {"tested_on": "WT 3D7 parasites", "assay": "Flow cytometry of Hoechst-stained parasites (number of nuclei)", "format": "cell-based, P. falciparum", "details": "140 nM for 45 h from ring stage", "experimental": "Synchronized parasites were incubated with DMSO or NMTi and samples were fixed in 2% PFA, 0.2 % glutaraldehyde for 1 hour at 45 h PI. Subsequently samples were washed in PBS and labelled with 1:500 of 10 mg/mL Hoechst 33342 for 10 min with a subsequent wash in PBS. For analysis, a Flow Cytometry CL1 Fortessa D Analyzer from BD with FACSDiva software v8.0.1 was used with the 450-50 filter counting 50,000 RBC per sample. Data were analyzed using FlowJo LLC 2006-2015 to determine the median fluorescence intensity (MFI) of each sample after gating out the RBC population using an RBC only sample as a control. The MFI of each sample was divided by the MFI of a control sample of synchronized rings with a known MFI of one nucleus."}, "[13]": {"tested_on": "P. falciparum 3D7 parasites", "design": "method as in Wright et al., 2014", "details": "four times the EC50 concentration from beginning of 48-h cycle, ref Wright et al., 2014; cited from earlier work"}, "[14]": {"details": "3D7, read-out: Growth assay PfNMT[WT] EC50"}, "[15]": {"details": "3D7, read-out: Growth assay PfNMT[G386E] Clone 1 EC50"}, "[16]": {"details": "3D7, read-out: Growth assay PfNMT[G386E] Clone 2 EC50"}}, "note": "Where two headings read alike, the source gives them in different places."}
{"molecule": "Cc1nn(C)c(C)c1CCOc1cc(F)ccc1-c1ccc2c(c1)c(CN(C)C)nn2C", "note": "[IMP-1002, 1-(5-(4-fluoro-2-(2-(1,3,5-trimethyl-1H-pyrazol-4-yl)ethoxy)phenyl)-1-methyl-1H-indazol-3-yl)-N,N-dimethylmethanamine]", "values": [{"measurement": "EC50", "setting": "[1]", "result": 0.035, "unit": "µM"}, {"measurement": "EC50", "setting": "[1]; Plasmodium falciparum, DD2, 72 h", "result": "0.0204 ± 0.0049", "unit": "µM"}, {"measurement": "decrease in affinity (KD PvNMT[G386E] / KD PvNMT[WT])", "setting": "PvNMT[G386E] [2]", "result": "approximately 5 fold"}, {"measurement": "IC50 ratio of G386E/WT on average", "setting": "PvNMT[G386E] [3]", "result": 2.6}, {"measurement": "Ratio PvNMT[G386E]/PvNMT[WT] IC50, Replicate 1", "setting": "PvNMT[G386E] [3]", "result": 3.1}, {"measurement": "Ratio PvNMT[G386E]/PvNMT[WT] IC50, Replicate 2", "setting": "PvNMT[G386E] [3]", "result": 3.4}, {"measurement": "Ratio PvNMT[G386E]/PvNMT[WT] IC50, Replicate 3", "setting": "PvNMT[G386E] [3]", "result": 1.4}, {"measurement": "IC50", "setting": "PvNMT[G386E] [3]; PvNMT[G386E] IC50, Replicate 1", "result": 0.006, "unit": "µM"}, {"measurement": "IC50", "setting": "PvNMT[G386E] [3]; PvNMT[G386E] IC50, Replicate 2", "result": 0.0071, "unit": "µM"}, {"measurement": "IC50", "setting": "PvNMT[G386E] [3]; PvNMT[G386E] IC50, Replicate 3", "result": 0.0069, "unit": "µM"}, {"measurement": "fold more potent in killing parasites than DDD85646", "setting": "[4]", "result": 4, "unit": "fold"}, {"measurement": "EC50", "setting": "[4]; [14]", "result": 0.0096, "unit": "µM"}, {"measurement": "EC50", "setting": "[4]; 3D7 parasites, initial EC50 determination (Figures 2A, S2A), read-out: parasite growth EC50", "result": 0.034, "unit": "µM"}, {"measurement": "number of nuclei versus DMSO control, PfNMT[G386E] parasites", "setting": "PfNMT[G386E] parasites; 140 nM for 45 h from ring stage", "result": "no difference"}, {"measurement": "inhibition at 0.14 µM", "setting": "PfNMT[G386E] parasites; Plasmodium falciparum, read-out: inhibition of [G386E] parasites", "result": 0, "unit": "%"}, {"measurement": "accumulation of NMT substrate GAP45", "setting": "[5]", "result": "inhibiting accumulation"}, {"measurement": "dissociation rate with PvNMT[WT]", "setting": "PvNMT[WT] [6]", "result": "slow dissociation rate"}, {"measurement": "ΔTm at 5 µM", "setting": "PvNMT[WT] [7]", "result": "> 8.8", "unit": "°C"}, {"measurement": "YnMyr labeling in PfNMT[G386E] parasite clones", "setting": "[8]", "result": "no reduction in labeling"}, {"measurement": "thermal stabilization (ΔTm) of PvNMT[G386E]", "setting": "PvNMT[G386E] [9]; absence of MyrCoA", "result": 1.8, "unit": "°C"}, {"measurement": "ΔΔTm between PvNMT[WT] and PvNMT[G386E]", "setting": "PvNMT[G386E] [9]; absence of MyrCoA (Table S4A), in favor of WT", "result": "> 7.0", "unit": "°C"}, {"measurement": "YnMyr labeling in WT parasites", "setting": "[10]", "result": "clear decrease in YnMyr labeling"}, {"measurement": "HsNMT1/PvNMT fold difference in IC50", "setting": "HsNMT1", "result": 2.32}, {"measurement": "EC50", "setting": "[11]; read-out: EC50 Clone 01", "result": "0.27 ± 0.04", "unit": "µM"}, {"measurement": "EC50", "setting": "[11]; read-out: EC50 Clone 02", "result": "0.3 ± 0.14", "unit": "µM"}, {"measurement": "EC50", "setting": "[11]; read-out: EC50 Clone 03", "result": "0.24 ± 0.063", "unit": "µM"}, {"measurement": "EC50", "setting": "[11]; read-out: EC50 uncloned population", "result": "0.32 ± 0.05", "unit": "µM"}, {"measurement": "increase in EC50 of IMP-1002-resistant clones", "setting": "[11]; resistant Dd2 clones versus Dd2 parental line", "result": 14, "unit": "fold"}, {"measurement": "HsNMT2/PvNMT fold difference in IC50", "setting": "HsNMT2", "result": 3.84}, {"measurement": "Ratio PfNMT[G386]/PfNMT[WT] EC50, Clone 1", "setting": "[12]; EC50 of [G386E]/[WT], Clone 1", "result": 24}, {"measurement": "Ratio PfNMT[G386]/PfNMT[WT] EC50, Clone 2", "setting": "[12]; EC50 of [G386E]/[WT], Clone 2", "result": 21}, {"measurement": "EC50", "setting": "[12]; [15]", "result": 0.23, "unit": "µM"}, {"measurement": "EC50", "setting": "[12]; [16]", "result": 0.201, "unit": "µM"}, {"measurement": "number of nuclei versus DMSO control, WT parasites", "setting": "WT 3D7 parasites", "result": "reduced number of nuclei"}]}
{"molecule": "Cc1nn(C)c(C)c1NS(=O)(=O)c1c(Cl)cc(-c2ccnc(N3CCNCC3)c2)cc1Cl", "note": "[DDD85646, reference compound]", "values": [{"measurement": "EC50", "setting": "[4]; [14]", "result": 0.069, "unit": "µM"}, {"measurement": "nuclei at stalled pseudoschizont stage", "setting": "[13]", "result": "4–6 nuclei"}, {"measurement": "EC50", "setting": "[12]; [15]", "result": 0.091, "unit": "µM"}, {"measurement": "EC50", "setting": "[12]; [16]", "result": 0.103, "unit": "µM"}]}
